This is an account of results in US20220153750A1, “SALTS OF 5,6-DIHYDRO-4H-THIENO[2,3-C]PYRROL-4-ONE COMPOUND AS ERK INHIBITORS” (Eli Lilly and Company, priority 2019, published 2022).

Converted amounts (≈) assume the structure as drawn. Some results are limits rather than exact numbers.

Holding throughout (format): physicochemical
A short description of series [1]: Hygroscopicity (moisture sorption analysis at 25° C.). The following applies: for Hygroscopicity, weight increase: 25° C. The procedure:
The purpose of this assay is to determine the hygroscopicity of the solid forms of the present invention under conditions normally encountered in manufacturing and storage of drug products. Moisture analysis is performed at 25° C. using a TA instrument. The following experimental conditions are used: sample size ˜3-20 mg, dry sample at 0% RH until <0.0 weight change over 10 minutes, 5-95% RH adsorption/desorption range, and 5% RH step interval. The minimum equilibration criterion is <0.01% weight change for 5 minutes.

Series [2] can be described thus: Formulation assessment: API powder flowability, compressibility, sticking. The following applies: compared to the free base. The procedure:
(§1) The purpose of this study is to evaluate the properties of certain solid forms of the present invention with respect to the suitability for manufacturing high drug load tablets. The API flowability is measured using a United States Pharmacopeia method for bulk/tapped density and a powder rheometer. The formula contains ˜64.6 wt % Example 2, 26.4 wt % microcrystalline cellulose (diluent/binder), 5 wt % croscarmellose sodium (disintegrant), 2 wt % sodium stearyl fumarate (lubricant), and 2 wt % silicone dioxide (glidant). The components are combined and tumble blended in a single step at a 40 g scale. The resulting blend is then tested using the same bulk/tapped density and powder rheometry tests. The blend is compressed on a single-station, instrumented tablet press. The accelerated studies are comprised of prototype tablets of methanesulfonic acid dihydrate (Example 2) at a 50% free base equivalence drug load. The tablets are prepared and stored in open-dish containers to evaluate stability. Samples are stored at 40° C./11% RH, 40° C./75% RH, 50° C./22% RH, and 50° C./50% RH. At designated time points the samples are characterized by XRPD for physical form and by HPLC using the following conditions: Column Zorbax Bonus-RP, 3.5-micron, 4.6×75 mm, mobile phase A is 0.1% TFA in water, mobile phase B is 0.1% TFA in ACN, gradient is 95% A at time 0 to 23% A at 9.5 minutes-12.1 minutes, 5% A at time 13-16 minutes, and 95% A at time 16.1 to 20 minutes with a flow rate of 1.5 mL/minute, a column temperature of 30° C., UV at 227 nM, an injection volume of 5 and autosampler at ambient temperature. The drug product formulation stress study under accelerated open dish conditions for methanesulfonic acid dihydrate (Example 2) is depicted in Table 5.

Series [3] in a line: Accelerated open-dish physical stability of prototype tablet (XRPD, HPLC). Here is the method:
as §1

The nature of series [4]: Equilibrium solubility of crystalline solid forms in simulated fluids (SGF, FaSSIF, FedSSIF). The following applies: for solubility thermodynamic at 24 h: thermodynamic from solid, room temperature. Here is the method:
The purpose of this assay is to measure the solubility of certain solid forms of the present invention in comparison to 6,6-dimethyl-2-{2-[(1-methyl-1H-pyrazol-5-yl)amino]pyrimidin-4-yl}-5-[2-(morpholin-4-yl)ethyl]-5,6-dihydro-4H-thieno[2,3-c]pyrrol-4-one (free base). pKa Determination is performed using a UV-metric method. The sample is titrated in a fast-UV triple titration between pH 2-12 at a concentration of 31-19 μM under aqueous condition. Subsequently, the sample is titrated in three UV-metric titrations from pH 1.5-10 at a concentration of 30-27 μM with no precipitation and the observed pKa averages are reported.
To determine the solubility of the three different crystal forms, a single aliquot of the test media (2 mL, see table 4) is added to an accurately weighed sample. Samples are mixed at room temperature for a period of 24 hours. If a solution is observed, more crystalline material is added and the suspension is slurried for at least 2 hours, after which, an aliquot is withdrawn, filtered through a 0.45 μm PTFE filter and characterized by HPLC using the following HPLC conditions: Column Waters)(Bridge Phenyl, 4.6×100 mm, 3.5 μm, mobile phase A is 0.% NH4OH in water, mobile phase B is MeOH, diluent is 75% ACN and 25% water, gradient is 50% A at time 0, 25% A at time 10-13 minutes, and 50% A at time 13.1 to 18 minutes with a flow rate of 0.9 mL/minute, a column temperature of 35° C., UV at 225 nM, an injection volume of 5 and autosampler at ambient temperature. The remaining solids are air dried prior to analysis by XRPD. One replicate from each sample has triplicate HPLC analysis. pH Measurement of the solution is performed using calibrated scientific pH equipment. […] The equilibrium solubility in simulated intestinal fluids of the free base (assumed crystalline) compared to the crystalline methanesulfonic acid dihydrate salt (Example 2) and 4-methylbenzenesulfonic acid salt (Example 3), (assumed crystalline) are shown in Table 4.

The nature of series [5]: Compaction properties / tabletability (Instron compaction, tensile strength). The following applies: for Tensile: 300 mg compact. The procedure: The purpose of this study is to determine the compaction properties of certain solid forms of the present invention. The experimental compaction testing is evaluated on Instron Universal Testing System equipped with a 50 kN load cell using Natoli 10 mm flat round punches and die for material compression. The profiles are generated at 5, 10, and 15 kN with a target tablet weight of 300 mg for each compact. The three compacts are made at each pressure set point while the Instron is traveling at 50 mm/minute. The compacts final weight is measured on a balance. The tablet's diameter and thickness is measured using Mitutoyo Thickness Gauge and hardness testing is completed on a Vankel Hardness tester using axially breakage.

In the case of `CS(=O)(=O)O.Cn1nccc1Nc1nccc(-c2cc3c(s2)C(C)(C)N(CCN2CCOCC2)C3=O)n1` [Example 1, 6,6-Dimethyl-2-{2-[(1-methyl-1H-pyrazol-5-yl)amino]pyrimidin-4-yl}-5-[2-(morpholin-4-yl)ethyl]-5,6-dihydro-4H-thieno[2,3-c]pyrrol-4-one; methanesulfonic acid], the “Hygroscopicity, weight increase” value is recorded as less than 0.1 wt % in series [1] (20% RH), less than 0.1 wt % in series [1] (60% RH) and roughly 4 wt % in series [1] (90% RH).

For the molecule `CS(=O)(=O)O.Cn1nccc1Nc1nccc(-c2cc3c(s2)C(C)(C)N(CCN2CCOCC2)C3=O)n1` [Example 2, 6,6-Dimethyl-2-{2-[(1-methyl-1H-pyrazol-5-yl)amino]pyrimidin-4-yl}-5-[2-(morpholin-4-yl)ethyl]-5,6-dihydro-4H-thieno[2,3-c]pyrrol-4-one; methanesulfonic acid dihydrate], the compressibility entry in series [2] is “improved”. In series [2], the powder flowability result is “improved”. The “sticking to tableting tools” value in series [2] is reported as “reduced sticking”. The “Physical stability in prototype tablet” value in series [3] (40° C./11% RH, 7 days) is reported as “Stable”; in series [3] (40° C./11% RH, 14 days), “Stable”; in series [3] (40° C./75% RH, 7 days), “Stable”; in series [3] (40° C./75% RH, 14 days) it was “Stable”; in series [3] (40° C./75% RH, 30 days), “Stable”; in series [3] (50° C./22% RH, 7 days) it was “Stable”. In addition, the “Physical stability in prototype tablet” value in series [3] (50° C./22% RH, 14 days) is “Stable”; in series [3] (50° C./22% RH, 30 days) it was “Stable”; in series [3] (50° C./50% RH, 7 days), “Stable”; in series [3] (50° C./50% RH, 14 days) it was “Stable”; in series [3] (50° C./50% RH, 30 days), “Stable”. Moreover, in series [1], the “hygroscopicity profile for drug product manufacturing processes” value was “preferred hygroscopicity profiles”. Also, in series [1] (90% RH, dihydrate), the “Hygroscopicity, weight increase” value is given as less than 0.1 wt % increase. Besides, the entries for the “pH of the solution in solubility test” value in series [4] (FaSSIF), in series [4] (FedSSIF) and in series [4] (SGF) were 5.33, 5.09 and 2.62, respectively. The “physical stability with respect to solution mediated form conversion” value in series [4] (FaSSIF and FedSSIF) is on record as “physically stable”. In addition, the “solubility compared to the free base” value in series [4] (FaSSIF and FedSSIF) was “higher solubility”. Further, the thermodynamic solubility at 24 h is greater than 20300 µg/mL in series [4] (fessif, FedSSIF); greater than 9700 µg/mL in series [4] (simulated gastric fluid, SGF); greater than 19000 µg/mL in series [4] (FaSSIF). Further, the Tensile in series [5] (Pressure 64 MPa) came out at 1.2034 MPa; in series [5] (Pressure 127 MPa) it was 2.1532 MPa; in series [5] (Pressure 191 MPa) it was 2.4082 MPa. Moreover, the “compaction properties compared with excipients” value in series [5] (versus mannitol SD200 and Lactose Anhydrous) is “in range with excipients”.

With `Cc1ccc(S(=O)(=O)O)cc1.Cn1nccc1Nc1nccc(-c2cc3c(s2)C(C)(C)N(CCN2CCOCC2)C3=O)n1` [Example 3, 6,6-Dimethyl-2-{2-[(1-methyl-1H-pyrazol-5-yl)amino]pyrimidin-4-yl}-5-[2-(morpholin-4-yl)ethyl]-5,6-dihydro-4H-thieno[2,3-c]pyrrol-4-one; 4-methylbenzenesulfonic acid], in series [1], the “hygroscopicity profile for drug product manufacturing processes” value is “preferred hygroscopicity profiles”. The “Hygroscopicity, weight increase” value is less than 0.1 wt % in series [1] (20% RH), roughly 0.2 wt % in series [1] (60% RH) and roughly 0.5 wt. % increase wt % in series [1] (90% RH). The “pH of the solution in solubility test” value in series [4] (FaSSIF) is reported as 5.44; in series [4] (FedSSIF), 5.04; in series [4] (SGF), 2.46. Further, the “solubility compared to the free base” value in series [4] (FaSSIF and FedSSIF) is recorded as “higher solubility”. In addition, the solubility (thermodynamic) at 24 h in series [4] (fessif, FedSSIF) is 13500 µg/mL; in series [4] (simulated gastric fluid, SGF), 7080 µg/mL; in series [4] (FaSSIF), 12200 µg/mL.

As to `Cl.Cn1nccc1Nc1nccc(-c2cc3c(s2)C(C)(C)N(CCN2CCOCC2)C3=O)n1` [Example 4, 6,6-Dimethyl-2-{2-[(1-methyl-1H-pyrazol-5-yl)amino]pyrimidin-4-yl}-5-[2-(morpholin-4-yl)ethyl]-5,6-dihydro-4H-thieno[2,3-c]pyrrol-4-one; hydrochloride, reference compound], the results for the “Hygroscopicity, weight increase” value in series [1] (20% RH) and in series [1] (60% RH) were roughly 0.4 wt. % wt % and roughly 6 wt %, respectively.

With `Cn1nccc1Nc1nccc(-c2cc3c(s2)C(C)(C)N(CCN2CCOCC2)C3=O)n1` [Free base, 6,6-Dimethyl-2-{2-[(1-methyl-1H-pyrazol-5-yl)amino]pyrimidin-4-yl}-5-[2-(morpholin-4-yl)ethyl]-5,6-dihydro-4H-thieno[2,3-c]pyrrol-4-one, reference compound], the figures for the “pH of the solution in solubility test” value in series [4] (FaSSIF), in series [4] (FedSSIF) and in series [4] (SGF) were 6.70, 5.36 and 5.05, respectively. In addition, the solubility (thermodynamic) at 24 h in series [4] (fessif, FedSSIF) was 5650 µg/mL (≈ 12.5 mM); in series [4] (simulated gastric fluid, SGF), 3700 µg/mL (≈ 8.16 mM); in series [4] (FaSSIF), 130 µg/mL (≈ 0.287 mM). The results for the Tensile in series [5] (Pressure 64 MPa), in series [5] (Pressure 127 MPa) and in series [5] (Pressure 191 MPa) were 0.5415 MPa, 1.0491 MPa and 1.6394 MPa, respectively.

On to `OC[C@H]1O[C@@H](O[C@H]2[C@H](O)[C@@H](O)C(O)O[C@@H]2CO)[C@H](O)[C@@H](O)[C@H]1O` (some centres unmarked) [Lactose Anhydrous], for which the Tensile in series [5] (Pressure 64 MPa) was found to be 0.9687 MPa; in series [5] (Pressure 128 MPa), 1.9119 MPa; in series [5] (Pressure 191 MPa), 3.1671 MPa.

Turning to `OC[C@@H](O)[C@@H](O)[C@H](O)[C@H](O)CO` [Mannitol SD200], the values for the Tensile in series [5] (Pressure 64 MPa), in series [5] (Pressure 127 MPa) and in series [5] (Pressure 191 MPa) were 0.4873 MPa, 1.1966 MPa and 2.1411 MPa, respectively.

The thermodynamic solubility is solubility found after equilibrating the solid with the medium.
